Consider eleven molecules from US20260070945A1, “MACROCYCLIC IMMUNOMODULATORS” (Bristol-Myers Squibb Company, priority 2022, published 2026).

Where a SMILES comes first, the peptide text is derived from it. Bridges are numbered along the chain shown (N, C = ends). [ ]: non-standard residue; d: D form. The star is where a group is joined. ξ: configuration not given here. Phe(4-CONH2) = NC(=O)c1ccc(C[C@H](N)C(=O)O)cc1; Phe(4-COOH) = N[C@@H](Cc1ccc(C(=O)O)cc1)C(=O)O; Bip = N[C@@H](Cc1ccc(-c2ccccc2)cc1)C(=O)O; Phe(4-CN) = N#Cc1ccc(C[C@H](N)C(=O)O)cc1; Phe(3-F) = N[C@@H](Cc1cccc(F)c1)C(=O)O; Phe(3-Me) = Cc1cccc(C[C@H](N)C(=O)O)c1; Val(3-OH) = CC(C)(O)[C@H](N)C(=O)O; 4Pal = N[C@@H](Cc1ccncc1)C(=O)O; Cha = N[C@@H](CC1CCCCC1)C(=O)O; Ile(3ξ) = CCC(C)[C@H](N)C(=O)O; Thr(3ξ) = CC(O)[C@H](N)C(=O)O; Carboxymethyl = O=C(O)C*; NMeA = CN[C@@H](C)C(=O)O; Aun = NCCCCCCCCCCC(=O)O; Dab = NCC[C@H](N)C(=O)O; AEEA = NCCOCCOCC(=O)O

T1 sequence (Q15116 25-288): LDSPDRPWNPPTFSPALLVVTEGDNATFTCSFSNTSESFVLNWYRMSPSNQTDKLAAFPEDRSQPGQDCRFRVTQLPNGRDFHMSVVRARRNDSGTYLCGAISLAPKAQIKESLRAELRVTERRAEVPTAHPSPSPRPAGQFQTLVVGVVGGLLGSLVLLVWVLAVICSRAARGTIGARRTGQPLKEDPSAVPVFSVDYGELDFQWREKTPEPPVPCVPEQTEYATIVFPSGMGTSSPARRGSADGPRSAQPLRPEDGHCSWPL

This assay addresses T1, PD-1/PD-L1 interaction (PE-labeled human PD-L1-Ig binding to Jurkat cell line over-expressing human PD-1) (Homo sapiens, UniProt Q15116).
T1 construct: expressed in transfected cells; host or cells: Jurkat
The assay can be described thus: Jurkat-PD-1 Cell Binding High-Content Screening Assay (CBA). Particulars: PE-labeled PD-L1-Ig 20 nM final, Jurkat-hPD-1 cells; read-out: Jurkat HPD1 PDL1 IC50. The essentials: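 Binding of 20 nM (final) PE-tagged PD-L1-Ig to compound-pretreated Jurkat-hPD-1 cells was measured by high-content imaging after 1 h. Pretreatment ran 2 h at 37 °C in DMEM with 10% fetal calf serum.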
Broadly, the IC50 is the point on the concentration scale where inhibition reaches its midpoint. Turning to `Cc1cccc(C[C@@H]2NC(=O)[C@H](CC(=O)O)NC(=O)[C@H](Cc3ccc(C#N)cc3)NC(=O)[C@H](C(C)O)NC(=O)CSC[C@@H](C(=O)N[C@@H](CCN)C(=O)NCCOCCOCC(=O)NCCOCCOCC(=O)NCCCCCCCCCCC(=O)O)NC(=O)[C@H](Cc3cnc[nH]3)NC(=O)[C@H](C(C)O)NC(=O)[C@H](CC3CCCCC3)NC(=O)[C@H](CCN)NC(=O)[C@@H](CC(C)C)NC(=O)[C@H](C)N(C)C(=O)[C@H](Cc3ccc(OCC(=O)O)cc3)NC(=O)[C@H](Cc3ccc(-c4ccccc4)cc3)NC(=O)[C@H](Cc3ccc(OCC(=O)O)cc3)NC2=O)c1` (stereo partly drawn) [Example 2525] ({CH2CO}-[Thr(3ξ)][Phe(4-CN)]D[Phe(3-Me)]Y(Carboxymethyl)[Bip]Y(Carboxymethyl)[NMeA][dL][Dab][Cha][Thr(3ξ)]HC[Dab][AEEA][AEEA][Aun]-OH; thioether N-14), the IC50 is 7.9 nM.

On to `Cc1cccc(C[C@@H]2NC(=O)[C@H](CC(=O)O)NC(=O)[C@H](Cc3ccc(C#N)cc3)NC(=O)[C@H](C(C)O)NC(=O)CSC[C@@H](C(=O)N[C@@H](CCN)C(=O)NCCOCCOCC(=O)NCCOCCOCC(=O)NCCCCCCCCCCC(=O)O)NC(=O)[C@H](CCC(=O)O)NC(=O)[C@H](C(C)C)NC(=O)[C@H](CC3CCCCC3)NC(=O)[C@H](CCN)NC(=O)[C@@H](CC(C)C)NC(=O)[C@H](C)N(C)C(=O)[C@H](Cc3ccc(OCC(=O)O)cc3)NC(=O)[C@H](Cc3ccc(-c4ccccc4)cc3)NC(=O)[C@H](Cc3cccc(F)c3)NC2=O)c1` (stereo partly drawn) [Example 2526] ({CH2CO}-[Thr(3ξ)][Phe(4-CN)]D[Phe(3-Me)][Phe(3-F)][Bip]Y(Carboxymethyl)[NMeA][dL][Dab][Cha]VEC[Dab][AEEA][AEEA][Aun]-OH; thioether N-14), for which the IC50 was found to be 16.9 nM.

With `Cc1cccc(C[C@@H]2NC(=O)[C@H](CC(=O)O)NC(=O)[C@H](Cc3ccc(C(=O)O)cc3)NC(=O)[C@H](C(C)O)NC(=O)CSC[C@@H](C(=O)N[C@@H](CCN)C(=O)NCCOCCOCC(=O)NCCOCCOCC(=O)NCCCCCCCCCCC(=O)O)NC(=O)[C@H](CO)NC(=O)[C@H](C(C)(C)O)NC(=O)[C@H](CC3CCCCC3)NC(=O)[C@H](CCN)NC(=O)[C@@H](CC(C)C)NC(=O)[C@H](C)N(C)C(=O)[C@H](Cc3ccc(C(=O)O)cc3)NC(=O)[C@H](Cc3ccc(-c4ccccc4)cc3)NC(=O)[C@H](Cc3ccc(C(=O)O)cc3)NC2=O)c1` (stereo partly drawn) [Example 2527] ({CH2CO}-[Thr(3ξ)][Phe(4-COOH)]D[Phe(3-Me)][Phe(4-COOH)][Bip][Phe(4-COOH)][NMeA][dL][Dab][Cha][Val(3-OH)]SC[Dab][AEEA][AEEA][Aun]-OH; thioether N-14), the IC50 turned out to be 1.8 nM.

Take `Cc1cccc(C[C@@H]2NC(=O)[C@H](CC(=O)O)NC(=O)[C@H](Cc3ccc(C(=O)O)cc3)NC(=O)[C@H](C(C)O)NC(=O)CSC[C@@H](C(=O)N[C@@H](CCN)C(=O)NCCOCCOCC(=O)NCCOCCOCC(=O)NCCCCCCCCCCC(=O)O)NC(=O)[C@H](CCC(=O)O)NC(=O)[C@H](C(C)O)NC(=O)[C@H](CC3CCCCC3)NC(=O)[C@H](CCN)NC(=O)[C@@H](CC(C)C)NC(=O)[C@H](C)N(C)C(=O)[C@H](Cc3ccc(C(=O)O)cc3)NC(=O)[C@H](Cc3ccc(-c4ccccc4)cc3)NC(=O)[C@H](Cc3ccc(C(=O)O)cc3)NC2=O)c1` (stereo partly drawn) [Example 2528] ({CH2CO}-[Thr(3ξ)][Phe(4-COOH)]D[Phe(3-Me)][Phe(4-COOH)][Bip][Phe(4-COOH)][NMeA][dL][Dab][Cha][Thr(3ξ)]EC[Dab][AEEA][AEEA][Aun]-OH; thioether N-14): the IC50 was found to be 8.6 nM.

As to `CCC(C)[C@@H]1NC(=O)[C@H](Cc2ccc(-c3ccccc3)cc2)NC(=O)[C@H](C(C)C)NC(=O)[C@H](Cc2c[nH]c3ccccc23)NC(=O)[C@H](CC(=O)O)NC(=O)[C@H](Cc2ccc(C(=O)O)cc2)NC(=O)[C@H](Cc2cnc[nH]2)NC(=O)CSC[C@@H](C(=O)N[C@@H](CCN)C(=O)NCCOCCOCC(=O)NCCOCCOCC(=O)NCCCCCCCCCCC(=O)O)NC(=O)[C@H](C(C)O)NC(=O)[C@H](C(C)O)NC(=O)[C@H](CC2CCCCC2)NC(=O)[C@H](CCN)NC(=O)[C@@H](CC(C)C)NC(=O)[C@H](C)N(C)C1=O` (stereo partly drawn) [Example 2529] ({CH2CO}-H[Phe(4-COOH)]DWV[Bip][Ile(3ξ)][NMeA][dL][Dab][Cha][Thr(3ξ)][Thr(3ξ)]C[Dab][AEEA][AEEA][Aun]-OH; thioether N-14), the IC50 was 4.4 nM.

In the case of `CCC(C)[C@@H]1NC(=O)[C@H](Cc2ccc(-c3ccccc3)cc2)NC(=O)[C@H](C(C)C)NC(=O)[C@H](Cc2c[nH]c3ccccc23)NC(=O)[C@H](CC(=O)O)NC(=O)[C@H](Cc2ccc(C(=O)O)cc2)NC(=O)[C@H](Cc2cnc[nH]2)NC(=O)CSC[C@@H](C(=O)N[C@@H](CCN)C(=O)NCCOCCOCC(=O)NCCCCCCCCCCC(=O)O)NC(=O)[C@H](C(C)O)NC(=O)[C@H](C(C)(C)O)NC(=O)[C@H](CC2CCCCC2)NC(=O)[C@H](CCN)NC(=O)[C@@H](CC(C)C)NC(=O)[C@H](C)N(C)C1=O` (stereo partly drawn) [Example 2530] ({CH2CO}-H[Phe(4-COOH)]DWV[Bip][Ile(3ξ)][NMeA][dL][Dab][Cha][Val(3-OH)][Thr(3ξ)]C[Dab][AEEA][Aun]-OH; thioether N-14), the IC50 came out at 2.4 nM.

`CCC(C)[C@@H]1NC(=O)[C@H](Cc2ccc(-c3ccccc3)cc2)NC(=O)[C@H](C(C)C)NC(=O)[C@H](Cc2c[nH]c3ccccc23)NC(=O)[C@H](CC(=O)O)NC(=O)[C@H](Cc2ccc(C(=O)O)cc2)NC(=O)[C@H](Cc2cnc[nH]2)NC(=O)CSC[C@@H](C(=O)N[C@@H](CCN)C(=O)NCCOCCOCC(=O)NCCCCCCCCCCC(=O)O)NC(=O)[C@H](CCC(=O)O)NC(=O)[C@H](C(C)(C)O)NC(=O)[C@H](CC2CCCCC2)NC(=O)[C@H](CCN)NC(=O)[C@@H](CC(C)C)NC(=O)[C@H](C)N(C)C1=O` (stereo partly drawn) [Example 2531] ({CH2CO}-H[Phe(4-COOH)]DWV[Bip][Ile(3ξ)][NMeA][dL][Dab][Cha][Val(3-OH)]EC[Dab][AEEA][Aun]-OH; thioether N-14): the IC50 is 1 nM.

In the case of `CC(=O)NCCCC[C@@H]1NC(=O)[C@H](C(C)(C)O)NC(=O)[C@H](CC2CCCCC2)NC(=O)[C@H](CCN)NC(=O)[C@@H](CC(C)C)NC(=O)[C@H](C)N(C)C(=O)[C@H](CCC(=O)O)NC(=O)[C@H](Cc2ccc(-c3ccccc3)cc2)NC(=O)[C@H](Cc2ccc(C(N)=O)cc2)NC(=O)[C@H](Cc2cccc(C)c2)NC(=O)[C@H](CC(=O)O)NC(=O)[C@H](Cc2ccc(OCC(=O)O)cc2)NC(=O)[C@H](Cc2ccc(OCC(=O)O)cc2)NC(=O)CSC[C@@H](C(=O)N[C@@H](CCN)C(=O)NCCOCCOCC(=O)NCCCCCCCCCCC(=O)O)NC1=O` [Example 2532] ({CH2CO}-Y(Carboxymethyl)Y(Carboxymethyl)D[Phe(3-Me)][Phe(4-CONH2)][Bip]E[NMeA][dL][Dab][Cha][Val(3-OH)]K(Ac)C[Dab][AEEA][Aun]-OH; thioether N-14), the IC50 is 1.4 nM.

As for `CC(=O)NCCCC[C@@H]1NC(=O)[C@H](C(C)(C)O)NC(=O)[C@H](CC2CCCCC2)NC(=O)[C@H](CCN)NC(=O)[C@@H](CC(C)C)NC(=O)[C@H](C)N(C)C(=O)[C@H](CCC(=O)O)NC(=O)[C@H](Cc2ccc(-c3ccccc3)cc2)NC(=O)[C@H](Cc2ccc(C(N)=O)cc2)NC(=O)[C@H](Cc2cccc(C)c2)NC(=O)[C@H](CC(=O)O)NC(=O)[C@H](Cc2ccc(C(=O)O)cc2)NC(=O)[C@H](Cc2ccc(OCC(=O)O)cc2)NC(=O)CSC[C@@H](C(=O)N[C@@H](CCN)C(=O)NCCOCCOCC(=O)NCCOCCOCC(=O)NCCCCCCCCCCC(=O)O)NC1=O` [Example 2533] ({CH2CO}-Y(Carboxymethyl)[Phe(4-COOH)]D[Phe(3-Me)][Phe(4-CONH2)][Bip]E[NMeA][dL][Dab][Cha][Val(3-OH)]K(Ac)C[Dab][AEEA][AEEA][Aun]-OH; thioether N-14), the half-inhibitory concentration (IC50) worked out at 2.3 nM.

With `CC(=O)NCCCC[C@@H]1NC(=O)[C@H](C(C)O)NC(=O)[C@H](CC2CCCCC2)NC(=O)[C@H](CCN)NC(=O)[C@@H](CC(C)C)NC(=O)[C@H](C)N(C)C(=O)[C@H](CCC(=O)O)NC(=O)[C@H](Cc2ccc(-c3ccccc3)cc2)NC(=O)[C@H](Cc2ccc(C(N)=O)cc2)NC(=O)[C@H](Cc2cccc(C)c2)NC(=O)[C@H](CC(=O)O)NC(=O)[C@H](Cc2ccc(C(=O)O)cc2)NC(=O)[C@H](Cc2ccc(OCC(=O)O)cc2)NC(=O)CSC[C@@H](C(=O)N[C@@H](CCN)C(=O)NCCOCCOCC(=O)NCCCCCCCCCCC(=O)O)NC1=O` (stereo partly drawn) [Example 2534] ({CH2CO}-Y(Carboxymethyl)[Phe(4-COOH)]D[Phe(3-Me)][Phe(4-CONH2)][Bip]E[NMeA][dL][Dab][Cha][Thr(3ξ)]K(Ac)C[Dab][AEEA][Aun]-OH; thioether N-14), the IC50 came to 1.7 nM.

As for `Cc1cccc(C[C@@H]2NC(=O)[C@H](CC(=O)O)NC(=O)[C@H](Cc3ccc(C(=O)O)cc3)NC(=O)[C@H](Cc3ccncc3)NC(=O)CSC[C@@H](C(=O)N[C@@H](CCN)C(=O)NCCOCCOCC(=O)NCCOCCOCC(=O)NCCCCCCCCCCC(=O)O)NC(=O)[C@H](CCC(=O)O)NC(=O)[C@H](C(C)C)NC(=O)[C@H](CC3CCCCC3)NC(=O)[C@H](CCN)NC(=O)[C@@H](CC(C)C)NC(=O)[C@H](C)N(C)C(=O)[C@H](CCC(=O)O)NC(=O)[C@H](Cc3ccc(-c4ccccc4)cc3)NC(=O)[C@H](Cc3ccc(C(N)=O)cc3)NC2=O)c1` [Example 2536] ({CH2CO}-[4Pal][Phe(4-COOH)]D[Phe(3-Me)][Phe(4-CONH2)][Bip]E[NMeA][dL][Dab][Cha]VEC[Dab][AEEA][AEEA][Aun]-OH; thioether N-14), the IC50 was 435 nM.
